Data: patent US20260130933A1, “PHARMACEUTICAL COMPOSITION FOR PREVENTION OR TREATMENT OF NEPHROPATHY AND/OR DIABETES MELLITUS, COMPRISING ENAVOGLIFLOZIN” (DAEWOONG PHARMACEUTICAL CO., LTD., priority 2022, published 2026)

Assay: Example 2: phase 3 trial, enavogliflozin 0.3 mg vs dapagliflozin 10 mg once a day for 24 weeks added to metformin in patients with type 2 diabetes (same efficacy, exploratory and safety endpoints)
Assay type: in vivo, human
Conditions: for fasting Total cholesterol, Mean (SD) / fasting Total cholesterol, Median / Change from baseline in Total cholesterol, ANCOVA LS mean (SE) / Change from baseline in Total cholesterol, Mean (SD) / Change from baseline in total cholesterol, Median: modified per-protocol set 1; for fasting Total cholesterol, Mean (SD) / fasting Total cholesterol, Median / Change from baseline in FPG, ANCOVA LS mean (SE) / Change from baseline in FPG, Mean (SD) / Change from baseline in FPG, Median / Change from baseline in HbA1c, ANCOVA LS mean (SE) / Change from baseline in HbA1c, Mean (SD) / Change from baseline in HbA1c, Median / Change from baseline in body weight, ANCOVA LS mean (SE) / Change from baseline in body weight, Mean (SD) / Change from baseline in body weight, Median / Change from baseline in fasting c-peptide, ANCOVA LS mean (SE) / Change from baseline in fasting c-peptide, Mean (SD) / Change from baseline in fasting c-peptide, Median / FPG, Mean (SD) / FPG, Median / HbA1c, Mean (SD) / HbA1c, Median / Subjects achieving HbA1c target of <6.5%, (%) / Subjects achieving therapeutic glycemic response, (%) / body weight, Mean (SD) / body weight, Median / fasting c-peptide, Mean (SD) / fasting c-peptide, Median / Change from baseline in Total cholesterol, ANCOVA LS mean (SE) / Change from baseline in Total cholesterol, Mean (SD) / Change from baseline in total cholesterol, Median: enavogliflozin 0.3 mg, dapagliflozin 10 mg; for Change from baseline in FPG, ANCOVA LS mean (SE) / Change from baseline in FPG, Mean (SD) / Change from baseline in FPG, Median / Change from baseline in HbA1c, ANCOVA LS mean (SE) / Change from baseline in HbA1c, Mean (SD) / Change from baseline in HbA1c, Median / Change from baseline in body weight, ANCOVA LS mean (SE) / Change from baseline in body weight, Mean (SD) / Change from baseline in body weight, Median / Change from baseline in fasting c-peptide, ANCOVA LS mean (SE) / Change from baseline in fasting c-peptide, Mean (SD) / Change from baseline in fasting c-peptide, Median / FPG, Mean (SD) / FPG, Median / HbA1c, Mean (SD) / HbA1c, Median / Subjects achieving HbA1c target of <6.5%, (%) / Subjects achieving therapeutic glycemic response, (%) / body weight, Mean (SD) / body weight, Median / fasting c-peptide, Mean (SD) / fasting c-peptide, Median: per-protocol set
Procedure: Subjects who met the inclusion/exclusion criteria were administered a placebo of the clinical trial drug under single-blind (subject blinding) conditions during a 2-week run-in period while continuing to receive metformin. […] The randomized subjects were administered two tablets of the clinical trial drug for each administration group once a day, and then visited the institution at weeks 6, 12, 18, and 24 during the 24-week administration period to conduct efficacy and safety evaluations.
• 1. Change in HbA1c at week 24 after administration of clinical trial drug compared to Visit 2 (randomization)
• 1. Change in HbA1c at each time point of weeks 6, 12, and 18 after administration of clinical trial drug compared to Visit 2 (randomization) • 2. Change in FPG at each time point of weeks 6, 12, 18, and 24 after administration of clinical trial drug compared to Visit 2 (randomization) • 3. Proportion of subjects achieving HbA1c<7% at each time point of weeks 6, 12, 18, and 24 after administration of clinical trial drug • 4. Proportion of subjects achieving HbA1c<6.5% at each time point of weeks 6, 12, 18, and 24 after administration of clinical trial drug • 5. Proportion of subjects achieving therapeutic response (HbA1c change (HbA1c at Visit 2-HbA1c at each evaluation time point)>0.5% or HbA1c<7% at each evaluation time point compared to Visit 2 (randomization)) at each time point of weeks 6, 12, 18 and 24 after administration of clinical trial drug
• 1. Change in fasting c-peptide at each time point of weeks 6, 12, 18, and 24 after administration of clinical trial drug compared to Visit 2 (randomization) • 2. Change in body weight at each time point of weeks 6, 12, 18, and 24 after administration of clinical trial drug compared to Visit 2 (randomization) • 3. Change in fasting lipid concentration (total cholesterol, LDL-C, HDL-C, and triglycerides) at each time point of weeks 6, 12, 18, and 24 after administration of clinical trial drug compared to Visit 2 (randomization) • 4. Changes in systolic or diastolic blood pressure at each time point of weeks 6, 12, 18, and 24 after administration of clinical trial drug compared to Visit 2 (randomization) • 5. Changes in β-cell function and insulin resistance measured by HOMA-β and HOMA-IR at each time point of weeks 6, 12, 18, and 24 after administration of clinical trial drug compared to Visit 2 (randomization) • 6. Changes in renal function-related indicators (UACR, UGCR) measured by UACR at each time point of weeks 6, 12, 18, and 24 after administration of clinical trial drug compared to Visit 2 (randomization) • 7. Changes in obesity-related indicators (adiponectin, leptin) at each time point of weeks 6, 12, 18, and 24 after administration of clinical trial drug compared to Visit 2 (randomization)

[1] = week 24, listed as dapagliflozin

CCOc1ccc(Cc2cc([C@@H]3O[C@H](CO)[C@@H](O)[C@H](O)[C@H]3O)ccc2Cl)cc1 [Dapagliflozin, reference compound]
fasting Total cholesterol, Mean (SD) (week 12): 143.19(28.59) mg/dL
fasting Total cholesterol, Median (week 12): 138.00 mg/dL
Change from baseline in FPG, ANCOVA LS mean (SE) (week 12): -30.11 mg/dL
Change from baseline in FPG, Mean (SD) (week 12): -31.89 mg/dL
Change from baseline in FPG, Median (week 12): -23.50 mg/dL
Change from baseline in HbA1c, ANCOVA LS mean (SE) (week 12): −0.79 % p
Change from baseline in HbA1c, Mean (SD) (week 12): −0.74 % p
Change from baseline in HbA1c, Median (week 12): −0.66 % p
Change from baseline in body weight, ANCOVA LS mean (SE) (week 12): −2.63(0.23) kg
Change from baseline in body weight, Mean (SD) (week 12): −2.61(1.66) kg
Change from baseline in body weight, Median (week 12): -2.55 kg
Change from baseline in fasting c-peptide, ANCOVA LS mean (SE) (week 12): −0.09(0.02) ng/mL
Change from baseline in fasting c-peptide, Mean (SD) (week 12): −0.08(0.18) ng/mL
Change from baseline in fasting c-peptide, Median (week 12): -0.10 ng/mL
FPG, Mean (SD) (week 12): 117.78 mg/dL
FPG, Median (week 12): 116.50 mg/dL
HbA1c, Mean (SD) (week 12): 6.94%
HbA1c, Median (week 12): 6.83%
Subjects achieving HbA1c target of <6.5%, (%) (week 12): (26.14) %
Subjects achieving therapeutic glycemic response, (%) (week 12): (79.55) %
body weight, Mean (SD) (week 12): 68.19(11.65) kg
body weight, Median (week 12): 66.90 kg
fasting c-peptide, Mean (SD) (week 12): 0.66(0.23) ng/mL
fasting c-peptide, Median (week 12): 0.65 ng/mL
FPG change from baseline, LS mean (SE) (week 18): −31.13(1.63) mg/dL
HOMA-IR change from baseline, LS mean (SE) (week 18): −1.47(0.12)
HOMA-β change from baseline, LS mean (SE) (week 18): 13.49(3.08)
HbA1c change from baseline, LS mean (SE) (week 18): −0.70(0.06) % p
LDL-C change from baseline, LS mean (SE) (week 18): 2.58(1.89) mg/dL
Subjects achieving HbA1c target of <7% (week 18): (57.47) %
Subjects achieving HbA1c<6.5% (week 18): 25.29%
Subjects achieving therapeutic response (HbA1c change >0.5% or HbA1c<7%) (week 18): 73.56%
UACR change from baseline, LS mean (SE) (week 18): −12.95(5.11) g/kg
diastolic blood pressure change from baseline, LS mean (SE) (week 18): −4.10(0.81) mmHg
fasting c-peptide change from baseline, LS mean (SE) (week 18): −0.06(0.19) ng/ml
leptin change from baseline, LS mean (SE) (week 18): −1.23(0.53) ng/mL
Subjects achieving HbA1c target of <7% (week 18, listed as dapagliflozin): 57.47%
Change from baseline in Total cholesterol, ANCOVA LS mean (SE) (week 18): 9.57(2.20) mg/dL
Change from baseline in Total cholesterol, Mean (SD) (week 18): 10.18(22.74) mg/dL
Change from baseline in total cholesterol, Median (week 18): 9.00 mg/dL
fasting Total cholesterol, Mean (SD) (week 18): 148.48(30.10) mg/dL
fasting Total cholesterol, Median (week 18): 151.50 mg/dL
Change from baseline in FPG, ANCOVA LS mean (SE) (week 18): -31.13 mg/dL
Change from baseline in FPG, Mean (SD) (week 18): -32.55 mg/dL
Change from baseline in FPG, Median (week 18): -26.00 mg/dL
Change from baseline in HbA1c, ANCOVA LS mean (SE) (week 18): −0.70 % p
Change from baseline in HbA1c, Mean (SD) (week 18): −0.66 % p
Change from baseline in HbA1c, Median (week 18): −0.61 % p
Change from baseline in body weight, ANCOVA LS mean (SE) (week 18): −3.16(0.26) kg
Change from baseline in body weight, Mean (SD) (week 18): −3.19(1.93) kg
Change from baseline in body weight, Median (week 18): -3.00 kg
Change from baseline in fasting c-peptide, ANCOVA LS mean (SE) (week 18): −0.06(0.02) ng/mL
Change from baseline in fasting c-peptide, Mean (SD) (week 18): −0.06(0.19) ng/mL
Change from baseline in fasting c-peptide, Median (week 18): -0.03 ng/mL
FPG, Mean (SD) (week 18): 116.53 mg/dL
FPG, Median (week 18): 115.00 mg/dL
HbA1c, Mean (SD) (week 18): 7.02%
HbA1c, Median (week 18): 6.90%
Subjects achieving HbA1c target of <6.5%, (%) (week 18): (25.29) %
Subjects achieving therapeutic glycemic response, (%) (week 18): (73.56) %
body weight, Mean (SD) (week 18): 67.54(11.96) kg
body weight, Median (week 18): 67.00 kg
fasting c-peptide, Mean (SD) (week 18): 0.69(0.24) ng/mL
fasting c-peptide, Median (week 18): 0.66 ng/mL
FPG change from baseline, LS mean (SE) (week 24): −29.14(1.82) mg/dL
HOMA-IR change from baseline, LS mean (SE) (week 24): −1.31(0.14)
HOMA-β change from baseline, LS mean (SE) (week 24): 11.93(3.25)
HbA1c change from baseline, LS mean (SE) (week 24): −0.75 % p
HbA1c change from baseline, Mean (SD) (week 24): −0.71 % p
HbA1c, Mean (week 24): 6.97%
LDL-C change from baseline, LS mean (SE) (week 24): 0.93(1.98) mg/dL
Subjects achieving HbA1c target of <7% (week 24): (62.22) %
Subjects achieving HbA1c<6.5% (week 24): 27.78%
Subjects achieving therapeutic response (HbA1c change >0.5% or HbA1c<7%) (week 24): 75.56%
UACR change from baseline, LS mean (SE) (week 24): −17.37(3.48) g/kg
UGCR change from baseline, LS mean (SE) (week 24): 44.94(2.18) mg/mg
diastolic blood pressure change from baseline, LS mean (SE) (week 24): −4.26(0.67) mmHg
fasting c-peptide change from baseline, LS mean (SE) (week 24): −0.04(0.26) ng/ml
leptin change from baseline, LS mean (SE) (week 24): −1.28(0.53) ng/mL
HbA1c change from baseline, LS mean (SE) [1]: −0.75(0.06) % p
HbA1c change from baseline, Mean (SD) [1]: −0.71(0.76) % p
Subjects achieving HbA1c target of <7% [1]: 62.22%
Change from baseline in Total cholesterol, ANCOVA LS mean (SE) (week 24): 6.74(2.30) mg/dL
Change from baseline in Total cholesterol, Mean (SD) (week 24): 9.15(22.59) mg/dL
Change from baseline in total cholesterol, Median (week 24): 10.00 mg/dL
fasting Total cholesterol, Mean (SD) (week 24): 147.02(27.55) mg/dL
fasting Total cholesterol, Median (week 24): 145.00 mg/dL
Change from baseline in FPG, ANCOVA LS mean (SE) (week 24): -29.14 mg/dL
Change from baseline in FPG, Mean (SD) (week 24): -31.42 mg/dL
Change from baseline in FPG, Median (week 24): -24.00 mg/dL
Change from baseline in body weight, ANCOVA LS mean (SE) (week 24): −3.58(0.34) kg
Change from baseline in body weight, Mean (SD) (week 24): −3.60(2.14) kg
Change from baseline in body weight, Median (week 24): -3.40 kg
Change from baseline in fasting c-peptide, ANCOVA LS mean (SE) (week 24): −0.04(0.02) ng/mL
Change from baseline in fasting c-peptide, Mean (SD) (week 24): −0.04(0.26) ng/mL
Change from baseline in fasting c-peptide, Median (week 24): -0.07 ng/mL
FPG, Mean (SD) (week 24): 117.91 mg/dL
FPG, Median (week 24): 116.50 mg/dL
Subjects achieving HbA1c target of <6.5%, (%) (week 24): (27.78) %
Subjects achieving therapeutic glycemic response, (%) (week 24): (75.56) %
body weight, Mean (SD) (week 24): 66.92(11.89) kg
body weight, Median (week 24): 66.05 kg
fasting c-peptide, Mean (SD) (week 24): 0.70(0.30) ng/mL
fasting c-peptide, Median (week 24): 0.66 ng/mL
